Experimental data taken from ChEMBL document CHEMBL1132520, “Antimalarial activity of 3-hydroxyalkyl-2-methylene-propionic acid derivatives” (1999).
The source made the active and inactive calls. No cut-off for these calls is given here.

Key:
Plasmodium falciparum [1] = test: In vitro antimalarial activity for Plasmodium falciparum at 100 uM/well dose at 24 hrs in Schizont maturation assay; type: functional
Plasmodium falciparum [2] = test: In vitro antimalarial activity for Plasmodium falciparum at 10 uM/well dose at 24 hrs in Schizont maturation assay; type: functional
Plasmodium falciparum [3] = test: In vitro antimalarial activity for Plasmodium falciparum at 1 uM/well dose at 24 hrs in Schizont maturation assay; type: functional
Plasmodium falciparum [4] = test: In vitro antimalarial activity for Plasmodium falciparum at 2.5 uM/well dose at 24 hrs in Schizont maturation assay; type: functional
Plasmodium falciparum [5] = test: In vitro antimalarial activity for Plasmodium falciparum at 20 uM/well dose at 24 hrs in Schizont maturation assay; type: functional
Plasmodium falciparum [6] = test: In vitro antimalarial activity for Plasmodium falciparum at 5 uM/well dose at 24 hrs in Schizont maturation assay; type: functional
Plasmodium falciparum [7] = test: In vitro inhibition of Plasmodium falciparum at 5 uM/well dose at 72 hrs in total parasite growth assay; Not determined; type: functional
Plasmodium falciparum [8] = test: In vitro inhibition of Plasmodium falciparum at 0.5 uM/well dose at 72 hrs in total parasite growth assay; type: functional
Plasmodium falciparum [9] = test: In vitro inhibition of Plasmodium falciparum at 2.5 uM/well dose at 72 hrs in total parasite growth assay; type: functional
Plasmodium falciparum [10] = test: In vitro inhibition of Plasmodium falciparum at 25 uM/well dose at 72 hrs in total parasite growth assay; type: functional
Plasmodium falciparum [11] = test: In vitro inhibition of Plasmodium falciparum at 1.0 uM/well dose at 72 hrs in total parasite growth assay; type: functional
Plasmodium falciparum [12] = test: In vitro inhibition of Plasmodium falciparum at 100 uM/well dose at 72 hrs in total parasite growth assay; type: functional
Plasmodium falciparum [13] = test: In vitro inhibition of Plasmodium falciparum at 10 uM/well dose at 72 hrs in total parasite growth assay; type: functional
Plasmodium falciparum [14] = test: In vitro antimalarial activity for Plasmodium falciparum at 0.50 uM/well dose at 24 hrs in Schizont maturation assay; type: functional
Plasmodium falciparum [15] = test: In vitro antimalarial activity for Plasmodium falciparum at 0.10 uM/well dose at 24 hrs in Schizont maturation assay; type: functional
Plasmodium falciparum [16] = test: In vitro antimalarial activity for Plasmodium falciparum at 0.25 uM/well dose at 24 hrs in Schizont maturation assay; type: functional
Plasmodium falciparum [17] = test: In vitro antimalarial activity for chloroquine-resistant Plasmodium falciparum at 32 uM/well dose at 24 hrs in Schizont maturation assay; type: functional
Plasmodium falciparum [18] = test: In vitro inhibition of Plasmodium falciparum at 64 uM/well dose at 72 hrs in total parasite growth assay; type: functional
Plasmodium falciparum [19] = test: In vitro inhibition of Plasmodium falciparum at 8 uM/well dose at 72 hrs in total parasite growth assay; type: functional
Plasmodium falciparum [20] = test: In vitro antimalarial activity for Plasmodium falciparum at 16 uM/well dose at 24 hrs in Schizont maturation assay; type: functional
Plasmodium falciparum [21] = test: In vitro antimalarial activity for chloroquine-resistant Plasmodium falciparum at a dose of 4 uM/well through Schizonts maturation assay over 24 hr; type: functional
Plasmodium falciparum [22] = test: In vitro antimalarial activity for Plasmodium falciparum at 2 uM/well dose at 24 hrs in Schizont maturation assay; type: functional
Plasmodium falciparum [23] = test: In vitro antimalarial activity for Plasmodium falciparum at 32 uM/well dose at 24 hrs in Schizont maturation assay; type: functional
Plasmodium falciparum [24] = test: In vitro antimalarial activity for Plasmodium falciparum at 4 uM/well dose at 24 hrs in Schizont maturation assay; type: functional
Plasmodium falciparum [25] = test: In vitro antimalarial activity for Plasmodium falciparum at 64 uM/well dose at 24 hrs in Schizont maturation assay; type: functional
Plasmodium falciparum [26] = test: In vitro antimalarial activity for Plasmodium falciparum at 8 uM/well dose at 24 hrs in Schizont maturation assay; type: functional
Plasmodium falciparum [27] = test: In vitro antimalarial activity for chloroquine-resistant Plasmodium falciparum at 16 uM/well dose at 24 hrs in Schizont maturation assay; type: functional
Plasmodium falciparum [28] = test: In vitro antimalarial activity for chloroquine-resistant Plasmodium falciparum at 1 uM/well dose at 24 hrs in Schizont maturation assay; type: functional
Plasmodium falciparum [29] = test: In vitro antimalarial activity for chloroquine-resistant Plasmodium falciparum at 2 uM/well dose at 24 hrs in Schizont maturation assay; type: functional
Plasmodium falciparum [30] = test: In vitro inhibition of Plasmodium falciparum at 4 uM/well dose at 72 hrs in total parasite growth assay; type: functional
Plasmodium falciparum [31] = test: In vitro antimalarial activity for chloroquine-resistant Plasmodium falciparum at 64 uM/well dose at 24 hrs in Schizont maturation assay; type: functional
Plasmodium falciparum [32] = test: In vitro antimalarial activity for chloroquine-resistant Plasmodium falciparum at 8 uM/well dose at 24 hrs in Schizont maturation assay; type: functional
Plasmodium falciparum [33] = test: In vitro inhibition of Plasmodium falciparum at 16 uM/well dose at 72 hrs in total parasite growth assay; type: functional
Plasmodium falciparum [34] = test: In vitro inhibition of Plasmodium falciparum at 2 uM/well dose at 72 hrs in total parasite growth assay; type: functional
Plasmodium falciparum [35] = test: In vitro inhibition of Plasmodium falciparum at 32 uM/well dose at 72 hrs in total parasite growth assay; type: functional
Mus musculus [36] = test: In vivo anti-malarial activity against Plasmodium berghei in mice (Mus musculus) at a dose of 16 mg/kg; Active; type: functional, organism-based; set-up: dose 16 mg/kg
Mus musculus [37] = test: In vivo anti-malarial activity against Plasmodium berghei in mice (Mus musculus) at a dose of 80 mg/kg; Active; type: functional, organism-based; set-up: dose 80 mg/kg
Mus musculus [38] = test: Antimalarial activity against Plasmodium berghei evaluated in terms of mean survival time for mice (Mus musculus) at a dose of 160 mg/kg; type: functional
Mus musculus [39] = test: Anti-malarial activity against Plasmodium berghei evaluated in terms of mean survival time for mice (Mus musculus) at a dose of 20 mg/kg; type: functional
Mus musculus [40] = test: Antimalarial activity against Plasmodium berghei evaluated in terms of mean survival time for mice (Mus musculus) at a dose of 40 mg/kg; type: functional
Mus musculus [41] = test: Antimalarial activity against Plasmodium berghei evaluated in terms of mean survival time for mice (Mus musculus) at a dose of 80 mg/kg; type: functional
Plasmodium falciparum [42] = test: In vitro antimalarial activity for Plasmodium falciparum at 500 uM/well dose at 24 hrs in Schizont maturation assay; type: functional
Plasmodium falciparum [43] = test: In vitro antimalarial activity for Plasmodium falciparum at 50 uM/well dose at 24 hrs in Schizont maturation assay; type: functional
Plasmodium falciparum [44] = test: In vitro inhibition of Plasmodium falciparum at 50 uM/well dose at 72 hrs in total parasite growth assay; type: functional
Plasmodium falciparum [45] = test: In vitro inhibition of Plasmodium falciparum at 5 uM/well dose at 72 hrs in total parasite growth assay; type: functional
Plasmodium falciparum [46] = test: In vitro inhibition of Plasmodium falciparum at 0.25 uM/well dose at 72 hrs in total parasite growth assay; type: functional
Plasmodium falciparum [47] = test: In vitro inhibition of Plasmodium falciparum at 20 uM/well dose at 72 hrs in total parasite growth assay; type: functional
Mus musculus [48] = test: In vivo antimalarial activity against Plasmodium berghei in mice (Mus musculus); Inactive; type: functional, organism-based
Plasmodium falciparum [49] = test: In vitro growth inhibition against Plasmodium falciparum at a dose of 20 uM/well through total parasite growth inhibition assay over 72 hr; type: functional

Structure (SMILES) | inhibition at 100 µM (Plasmodium falciparum [1]) [%] | inhibition at 10 µM (Plasmodium falciparum [2]) [%] | inhibition at 1 µM (Plasmodium falciparum [3]) [%] | inhibition at 2.5 µM (Plasmodium falciparum [4]) [%] | inhibition at 20 µM (Plasmodium falciparum [5]) [%] | inhibition at 5 µM (Plasmodium falciparum [6]) [%] | PGI (Plasmodium falciparum [8]) [%] | PGI (Plasmodium falciparum [9]) [%] | PGI (Plasmodium falciparum [11]) [%] | PGI (Plasmodium falciparum [12]) [%] | PGI (Plasmodium falciparum [13]) [%] | inhibition at 0.5 µM (Plasmodium falciparum [14]) [%] | inhibition at 0.1 µM (Plasmodium falciparum [15]) [%] | inhibition at 0.25 µM (Plasmodium falciparum [16]) [%] | Mean survival time (Mus musculus [38]) [days] | Mean survival time (Mus musculus [39]) [days] | Mean survival time (Mus musculus [40]) [days] | Mean survival time (Mus musculus [41]) [days] | inhibition at 50 µM (Plasmodium falciparum [43]) [%] | PGI (Plasmodium falciparum [44]) [%] | further results
C=C(C#N)C(O)c1ccccc1 (configuration not stated) | 100 | 80 | 25.7 | 62.8 | 85 | 65.7 | 8.6 | 62.8 | 25.7 | 100 | 80 | 8.6 | 0 | 0 |  |  |  |  |  |  | PGI (Plasmodium falciparum [7]): 65.7%; PGI (Plasmodium falciparum [10]): 85%
CCN(CC)CCCC(C)Nc1ccnc2cc(Cl)ccc12.O=P(O)(O)O.O=P(O)(O)O (configuration not stated) [CHLOROQUINE PHOSPHATE] |  |  | 0 |  |  |  |  |  | 16.7 |  |  |  |  |  |  |  |  |  |  |  | inhibition at 32 µM (Plasmodium falciparum [17]): 100%; PGI (Plasmodium falciparum [18]): 100%; PGI (Plasmodium falciparum [19]): 100%; inhibition at 16 µM (Plasmodium falciparum [20]): 100%; inhibition at 4 µM (Plasmodium falciparum [21]): 39.4%; inhibition at 2 µM (Plasmodium falciparum [22]): 16%; inhibition at 32 µM (Plasmodium falciparum [23]): 100%; inhibition at 4 µM (Plasmodium falciparum [24]): 39.4%; inhibition at 64 µM (Plasmodium falciparum [25]): 100%; inhibition at 8 µM (Plasmodium falciparum [26]): 86.8%; inhibition at 16 µM (Plasmodium falciparum [27]): 100%; inhibition at 1 µM (Plasmodium falciparum [28]): 0%; inhibition at 2 µM (Plasmodium falciparum [29]): 16%; PGI (Plasmodium falciparum [30]): 91.7%; inhibition at 64 µM (Plasmodium falciparum [31]): 100%; inhibition at 8 µM (Plasmodium falciparum [32]): 86.8%; PGI (Plasmodium falciparum [33]): 100%; PGI (Plasmodium falciparum [34]): 58.3%; PGI (Plasmodium falciparum [35]): 100%
C=C(C#N)C(O)c1cccnc1 (configuration not stated) | 100 | 100 | 93 | 100 | 100 | 100 | 55 | 82.5 | 77.5 | 100 | 97.5 | 50 | 0 | 12 | 15.2 | 6.4 | 8.8 | 13.4 | 100 | 100 | Activity (Mus musculus [36]): Active; Activity (Mus musculus [37]): Active; inhibition at 500 µM (Plasmodium falciparum [42]): 100%; PGI (Plasmodium falciparum [45]): 90%; PGI (Plasmodium falciparum [46]): 20%; PGI (Plasmodium falciparum [47]): 100%
COC(=O)C(CNC(C)C)C(O)c1ccc([N+](=O)[O-])cc1 (configuration not stated) | 100 | 29 | 14 | 25 | 80 | 29 | 0 | 15 | 10 | 100 | 42.5 | 0 | 0 | 0 | 11.8 | 7 | 8.2 | 9.8 | 100 | 100 | Activity (Mus musculus [48]): inactive; PGI (Plasmodium falciparum [45]): 25%; PGI (Plasmodium falciparum [46]): 0%; PGI (Plasmodium falciparum [49]): 92.5%
